The test system of one data set is renal glucose absorption. Briefly: PK-PD nonlinear mixed-effects model of empagliflozin exposure vs urinary glucose excretion / renal glucose threshold. In kind it is in vivo, human. The source says:
Empagliflozin, a selective and potent SGLT2 inhibitor, reduces renal glucose reabsorption by lowering the renal threshold for glucose (RTG) leading to increased urinary glucose excretion (UGE) and decreased plasma glucose (PG) in patients with type 2 diabetes mellitus (T2DM). This analysis aimed to quantify the impact of empagliflozin on RTG by characterizing the relationship between empagliflozin exposure and UGE in patients with T2DM using nonlinear mixed-effects modeling.
A pharmacokinetic (PK)-pharmacodynamic (PD) model was developed using UGE, PG, PK and estimated glomerular filtration rate (eGFR) data from three Phase I/II trials (N=223; placebo, empagliflozin 1 to 100 mg once daily [QD]). The model assumed that when PG>RTG, UGE increased with increasing PG and eGFR; and when PG≤RTG slight glucose leakage into urine occurred (estimated as fraction reabsorbed [FRAC]). Reabsorption was estimated by a nonlinear function parameterized in terms of maximum reabsorbed glucose concentration (Gmax) and PG concentration to reach half maximum transport (Km). Maximum inhibitory effect (Imax) and half maximal inhibitory concentration (IC50) described inhibition of renal glucose absorption. RTG was calculated as the difference between maximum reabsorption (including drug effect) and KM. The model was evaluated via bootstrap and external predictive check of an empagliflozin renal impairment study.

Data set [1] has as its system patients with T2DM and RI. Briefly: Phase III trial of empagliflozin as add-on to existing therapy in patients with T2DM and renal impairment. It counts as in vivo, human. The method, then: A Phase III trial investigated the efficacy and safety of empagliflozin (EMPA) as add-on to existing therapy for 52 weeks in patients with T2DM and RI. Patients with mild RI (eGFR [MDRD equation] ≥60 to <90 mL/min/1.73 m^2; n=290; mean age 62.6 years; mean BMI 31.5 kg/m^2) received EMPA 10 or 25 mg qd or placebo (PBO). Patients with moderate RI (eGFR ≥30 to <60 mL/min/1.73 m^2; n=374; mean age 64.9 years; mean BMI 30.2 kg/m^2) received EMPA 25 mg qd or PBO. The primary endpoint was change from baseline in HbA1c at week 24. Exploratory endpoints included changes from baseline in fasting plasma glucose (FPG), weight and blood pressure (BP) at week 24 (FIG. 1).

Data set [2] deals with patients with T2DM and CKD stage 3A, 3B and 4. Briefly: Phase III trial of empagliflozin as add-on to existing therapy in patients with T2DM and CKD stage 3A, 3B and 4. In kind it is in vivo, human. The following applies: EMPA 25 mg; for AEs consistent with urinary tract infection, patients / AEs consistent with volume depletion, patients / adverse events (AEs) reported, patients: 52 weeks. The method, then: A Phase III trial investigated the efficacy and safety of empagliflozin (EMPA) as add-on to existing therapy for 52 weeks in patients with T2DM and CKD stage 3A, 3B and 4. Patients with CKD stage 3A (eGFR [MDRD equation] ≥45 to <60 ml/min/1.73 m^2; n=180; mean [SD] age 64.5 [8.0] years; mean [SD] BMI 30.5 [5.2] kg/m^2), CKD stage 3B (eGFR ≥30 to <45 ml/min/1.73 m^2; n=194; mean [SD] age 65.2 [9.0] years; mean [SD] BMI 30.0 [5.4] kg/m^2) or CKD stage 4 (eGFR ≥15 to <30 ml/min/1.73 m^2; n=74; mean [SD] age 64.1 [11.1] years; mean [SD] BMI 30.4 [5.6] kg/m^2) received EMPA 25 mg qd or PBO for 52 weeks. In exploratory analyses, we assessed the long-term efficacy and safety of EMPA, including changes from baseline in HbA1c, fasting plasma glucose (FPG), weight and systolic and diastolic blood pressure (SBP and DBP) at week 52 (FIG. 7).

For the next data set, the system named is the diabetic. The following applies: metformin on its own; cited from earlier work.

pIC50: −log10 of the molar value.

As to `OC[C@H]1O[C@@H](c2ccc(Cl)c(Cc3ccc(O[C@H]4CCOC4)cc3)c2)[C@H](O)[C@@H](O)[C@@H]1O` [empagliflozin, 1-chloro-4-(β-D-glucopyranos-1-yl)-2-[4-((S)-tetrahydrofuran-3-yloxy)-benzyl]benzene], in the data set with renal glucose absorption (Homo sapiens, model parameter estimate, three Phase I/II trials, N=223, read-out: IC50, half maximal inhibitory concentration for renal glucose absorption (95% CI)), the pIC50 is 8.28. Further, the “RTG (renal threshold for glucose)” value came out at 100.5 mg/dL in the data set with renal glucose absorption (dose 1 mg), 43.8 mg/dL with renal glucose absorption (dose 5 mg), 33.1 mg/dL in the data set with renal glucose absorption (dose 10 mg) and 26.0 mg/dL in the data set on renal glucose absorption (dose 25 mg). Further, the “Imax, maximum inhibitory effect on renal glucose absorption (95% CI)” value in the data set on renal glucose absorption (model parameter estimate, three Phase I/II trials, N=223) was 0.559 (0.545, 0.607). Further, the figures for the “AEs consistent with genital infection, patients” value in data set [1] (EMPA 10 mg qd) and in data set [1] (EMPA 25 mg qd) were 6.1% and 2.5%, respectively. Besides, the “AEs consistent with urinary tract infection, patients” value in data set [1] (EMPA 10 mg qd) was determined as 10.2%; in data set [1] (EMPA 25 mg qd) it was 9.0%; in data set [2] (CKD stage 3A) it was 16.5%; in data set [2] (CKD stage 3B), 16.7%; in data set [2] (CKD stage 4), 18.9%. Further, the “Hypoglycemia (plasma glucose ≤70 mg/dL and/or requiring assistance), patients” value in data set [1] (EMPA 10 mg qd) was found to be 23.5%; in data set [1] (EMPA 25 mg qd), 22.1%. Moreover, the “adverse events (AEs) reported, patients” value in data set [1] (EMPA 10 mg qd, week 24, all patients) is given as 79.6%; in data set [1] (EMPA 25 mg qd, week 24, all patients incl. exploratory severe RI group), 75.4%; in data set [2] (CKD stage 3A), 86.8%; in data set [2] (CKD stage 3B), 80.2%; in data set [2] (CKD stage 4), 91.9%. In addition, the “difference to placebo for the adjusted mean change in HbA1c from baseline” value in data set [1] (Week 24, moderate A renal impairment) is reported as −0.46%; in data set [1] (Week 24, moderate B renal impairment), −0.39%. The tolerability entry in data set [1] (patients with T2DM and mild or moderate RI) is reported as “well tolerated”. The BP result in data set [1] (week 24, further analyses) was “significant reductions”; in data set [2] (week 52, CKD stage 4) it was “Reductions”. For the same compound, the FPG result in data set [1] (week 24, further analyses) is given as “significant reductions”; in data set [2] (week 52, CKD stage 3A) it was “significantly reduced”; in data set [2] (week 52, CKD stage 3B) it was “significantly reduced”; in data set [2] (week 52, CKD stage 4) it was “Reductions”. The weight entry is reported as “significant reductions” in data set [1] (week 24, further analyses); “significantly reduced” in data set [2] (week 52, CKD stage 3A); “significantly reduced” in data set [2] (week 52, CKD stage 3B); “Reductions” in data set [2] (week 52, CKD stage 4). The “HbA1c vs PBO” value in data set [1] (week 24, mild or moderate RI) is on record as “significantly reduced”; in data set [2] (week 52, CKD stage 3A), “significantly reduced”; in data set [2] (week 52, CKD stage 3B), “significantly reduced”. In addition, the “AEs consistent with volume depletion, patients” value in data set [2] (CKD stage 3A) worked out at 4.4%; in data set [2] (CKD stage 3B), 3.1%; in data set [2] (CKD stage 4), 5.4%. Moreover, the DBP result in data set [2] (week 52, CKD stage 3A) is “significantly reduced”. Besides, the SBP result in data set [2] (week 52, CKD stage 3A) is “significantly reduced”. Besides, in data set [2] (week 52, CKD stage 4), the HbA1c result is given as “did not reduce”.
For the compound `CN(C)C(=N)N=C(N)N` [metformin], in the data set on the diabetic, the “average improvement in the HbA1c value” is on record as 1.0-1.5%.

Values taken from US11090323B2, “Pharmaceutical composition, methods for treating and uses thereof” (Boehringer Ingelheim International GmbH, priority 2013, dated 2021).
